# According to patent US6403616B1, “Chemical process and pharmaceutical formulation” (AstraZeneca AB, priority 1998, dated 2002):
# Assay: pKa of omeprazole magnesium
# Assay type: physicochemical
# From the text: Preferably, a suspension of omeprazole magnesium should have a pH of 9.5 or above in a 10% (w/w) suspension of the bulk substance.
smiles,measurement,value
COc1ccc2[n-]c([S+]([O-])Cc3ncc(C)c(OC)c3C)nc2c1.COc1ccc2[n-]c([S+]([O-])Cc3ncc(C)c(OC)c3C)nc2c1.[Mg+2] (stereo not shown) [omeprazole magnesium],pKa,8.8
